Assay [1] has as its system hepatitis B virus (HBV) ayw strain. Kind of assay: HBV experimental assay system (secreted HBV DNA, TaqMan PCR). In kind it is cell-based. The conditions noted are these: 10 micrograms per ml; HepG2-2.2.15 cells; HBV DNA after six days.
The test system of the next assay is murine spleen cells. Kind of assay: Th1/Th2 cytokine profiling assay. Type of assay: cell-based, mouse. The conditions noted are these: 10 micrograms per ml; Ovalbumin-restimulated murine spleen cells; 72 hours.
Assay [2] relates to Primary Human endothelial cells (HUVEC). Kind of assay: Endothelial cell migration assay. Type of assay: cell-based. The conditions noted are these: 10 micrograms per ml, 22 hours.
Another assay deals with HUVEC. Kind of assay: Endothelial tube formation assay. Type of assay: cell-based, human. The conditions noted are these: 10 micrograms per ml, 20 hours. The text has this:
Positive control wes vehicle only.

The subject of another assay is Streptococcus pneumoniae. In words: Streptococcus pneumoniae assay. The conditions noted are these: 10 micrograms per ml; visual reading.
Another assay deals with HCMV strain AD169. In words: HCMV plaque formation assay in MRC-5 cells. The conditions noted are these: for inhibition of HCMV plaque formation as compared to the virus control experiment: 10 micrograms per ml, MRC-5 cells, 7-10 days.
The next assay deals with HIV-1IIIB. Kind of assay: HIV-1 antiviral (cytopathic effect) assay in CEM-SS cells. The conditions noted are these: for reduction of the cytopathic effect (CPE) in HIV-1 infected CEM-SS cells: 10 micrograms per ml, HIV-1IIIB, MTS readout; for antiviral activity of positive control compounds: HIV-1IIIB in CEM-SS cells. A general note: Damage to the host cells serves as the signal in cytopathic effect assays.

From US20100197600A1, “USE OF THE PEPTIDE HIS-SER-LEU-GLY-LYS-TRP-LEU-GLY-HIS-PRO-ASP-LYS-PHE ALONE OR IN COMBINATION WITH THE PEPTIDE PRO-GLY-THR-CYS-GLU-ILE-CYS-ALA-TYR-ALA-ALA-CYS-THR-GLY-CYS-OH AS A THERAPEUTIC AGENT” (priority 2007, published 2010) come the findings set out here.

No end group written: not given here.

As to “His-Ser-Leu-Gly-Lys-Trp-Leu-Gly-His-Pro-Asp-Lys-Phe (HSLGKWLGHPDKF; printed: His-Ser-Leu-Gly-Lys-Trp-Leu-Gly-His-Pro-Asp-Lys-Phe) [Peptide 1]”, in assay [1], the “inhibition of HBV replication as compared to the virus control infection” value was determined as 43.4%. For the same molecule, in the assay on murine spleen cells, the “change of the production of IL-5” value was “did not significantly change”, the “decrease of the production of IFN-γ” value is “did not significantly change”, the “increase (induction) of the production of TNF-α” value is listed as 21.2% and the “increase of the production of IL-2” value was 106.5%. For the same molecule, the “increase of the production of IL-4” value in the assay on murine spleen cells was found to be 117.8%. In addition, the “inhibition of the migration of human endothelial cells” value in assay [2] was 12%. Besides, in the assay with HUVEC, the “inhibition of the tube formation of human endothelial cells” value worked out at 10%. Also, the “inhibition of the growth of Streptococcus pneumoniae” value with Streptococcus pneumoniae amounted to 100%. In addition, in the assay with HCMV strain AD169, the “inhibition of HCMV plaque formation as compared to the virus control experiment” value is listed as “did not inhibit”. Also, in the assay with HIV-1IIIB, the “reduction of the cytopathic effect (CPE) in HIV-1 infected CEM-SS cells” value stood at 43.9%.
For the molecule “Pro-Gly-Thr-Cys-Glu-Ile-Cys-Ala-Tyr-Ala-Ala-Cys-Thr-Gly-Cys-OH (PGTCEICAYAACTGC-OH; cysteine pairing not given here) [Peptide 2]”, the “inhibition of HBV replication as compared to the virus control infection” value in assay [1] is 21.7%. For the same molecule, in the assay with murine spleen cells, the “change of the production of IL-5” value is given as “did not significantly change”, the “decrease of the production of IFN-γ” value came out at 38%, the “increase (induction) of the production of TNF-α” value is reported as “did not significantly change” and the “increase of the production of IL-2” value was determined as 35.5%. In addition, the “increase of the production of IL-4” value with murine spleen cells was 43.8%. Further, the “inhibition of the migration of human endothelial cells” value in assay [2] is 24%. Further, in the assay on HUVEC, the “inhibition of the tube formation of human endothelial cells” value is 10%. Moreover, the “inhibition of the growth of Streptococcus pneumoniae” value in the assay on Streptococcus pneumoniae is reported as “no effect”. Also, the “inhibition of HCMV plaque formation as compared to the virus control experiment” value in the assay on HCMV strain AD169 is “did not inhibit”. The “reduction of the cytopathic effect (CPE) in HIV-1 infected CEM-SS cells” value in the assay with HIV-1IIIB was 13.2%.
As to `CC(C)(C)NC(=O)[C@@H]1CN(Cc2cccnc2)CCN1C[C@@H](O)C[C@@H](Cc1ccccc1)C(=O)N[C@H]1c2ccccc2C[C@H]1O` [indinavir, reference compound], the “antiviral activity of positive control compounds” value in the assay with HIV-1IIIB is “expected levels of antiviral activity”.
In the case of `Nc1nc(O)c2ncn(COC(CO)CO)c2n1` [Ganciclovir, reference compound], in the assay with HCMV strain AD169 (positive control, HCMV in MRC-5 cells), the “antiviral activity of positive control compound” value is listed as “expected levels of antiviral activity”.
Take `Cc1cn([C@H]2C[C@H](N=[N+]=[N-])[C@@H](CO)O2)c(=O)[nH]c1=O` [AZT, zidovudine, reference compound]: the “antiviral activity of positive control compounds” value in the assay on HIV-1IIIB is recorded as “expected levels of antiviral activity”.
